Results: patent US8637493B2, “Methods for treating glioblastoma” (University of Massachusetts, priority 2009, dated 2014)

Key:
[1] = system: U87NS; experiment: Neurosphere formation / recovery / secondary neurosphere assay, U87NS; type: cell-based, human; details: LY alone at various concentrations, counted after 7 days
Method: (§1) The effect of chemotherapy on neurosphere formation was assayed in glioma neurosphere cultures. Cultures are treated with a single dose of the agent, e.g., TMZ and multiple doses of a GSI, e.g., DAPT to inhibit the Notch pathway. After the Treatment phase, the number of initial spheres (counted about 7 days after TMZ treatment) represents the number of proliferating CSC/progenitors (FIG. 1 for schematic). Recovery (counted 14 days after TMZ treatment) includes enlargement of the initial spheres and new spheres formed when CSC/progenitor cells quiescent as a result of chemotherapy resume cell proliferation. […] The cells used included U87NS, a neurosphere culture converted to neurosphere growth in defined medium from U87MG (an old Swedish line that is grown in conventional serum conditions); GS7-2, GS8-26 and GS6-22 primary neurosphere cultures that were obtained from grade IV GBM patient tumor samples and AS5-15, which was obtained from a grade III anaplastic astrocytoma.
(§2) To determine the effects of TMZ plus DAPT neurospheres, cells were plated as previously described (Mihaliak et al., Cancer Letts. 296, 168-177 (2010)). Immediately after plating, cells were treated with DMSO, DAPT-only, LY411,575 (LY)-only TMZ-only, TMZ+DAPT or TMZ+LY. The initial neurospheres were counted on day 7 for the converted cell lines and on day 10 for the slower growing primary lines. Neurosphere recovery was measured on day 14 or 20. The neurospheres were dissociated, re-plated and secondary neurosphere formation was measured on day 21 or 30.
(§3) Neurosphere cultures were dissociated to single cell suspensions by pH dissociation followed by filtration through 40 μm screens. For the neurosphere assay, 3,000 cells/ml of defined medium were seeded in 6-well plates. Immediately after plating, cells were treated with DMSO (Research Organics, Cleveland, Ohio) carrier control, TMZ-only, DAPT-only, or TMZ+DAPT. Additional DAPT was added on days 2 and 4. Neurospheres consisting of 10 or more cells were counted under a light microscope on day 7 for the converted cell lines. Primary lines have a slightly longer doubling time and were counted on day 10. After counting the neurospheres from the initial treatment, 2 ml of fresh defined medium was added to each well. DAPT was also added once more to the DAPT-only and TMZ+DAPT samples, and the cells were incubated for an additional 7 or 10 days. Neurospheres from the recovery period were counted on day 14 or day 20. To analyze secondary neurosphere formation, cells were collected, pelleted and dissociated to a single cell suspension by the pH method. Cells from each well were re-seeded into 6-well plates with 2 ml of defined medium. The number of secondary neurospheres formed by converted cell lines and primary cultures were counted on day 21 or day 30, respectively. All recovery assays were repeated with a minimum of 6 replicate sets of time points.
For the samples labeled “PRE-treat”, a single dose of DAPT was administered when the cells were plated, and then TMZ was added to the medium 24 hours later. For the “CO-treat” samples, single doses of TMZ and DART were added simultaneously when the cells were plated. Finally, samples labeled “POST-treat” were treated with TMZ, and then DAPT was added 24 hours later.

[2] = system: U373NS; experiment: Neurosphere formation / recovery / secondary neurosphere assay, U373NS; type: cell-based, human
Method: as §1, §2, §3

**Q.** What does the source list for `C[C@H](NC(=O)[C@@H](O)c1cc(F)cc(F)c1)C(=O)N[C@@H]1C(=O)N(C)c2ccccc2-c2ccccc21` [LY, N-2((2S)-2-(3,5-difluorophenyl)-2-hydroxyethanoyl)-N1-((7S)-5-methyl-6-oxo-6,7-dihydro-5H-dibenzo[b,d]azepin-7-yl)-L-alaninamide]?
**A.** neurosphere formation [1]: dose-dependent decrease; neurosphere formation ([2]; LY alone at various concentrations, counted after 7 days): dose-dependent decrease; secondary neurosphere formation compared to DMSO treated samples ([2]; LY-only, secondary formation still robust): decreased
